Columns and labels:
[1] = Fluorescence spectra / optical properties; assay type: physicochemical; design: key to Brightness: ++++: very bright; +++: bright; ++: moderate brightness; +: weak
Protocol: Computations. In vitro fluorescence quenching studies were carried out at peak excitation and emission wavelengths. Microliter aliquots of the sodium salt of the quenching anion (1 M) were added to indicator solution in 5 mM sodium phosphate (pH 7.2, unless indicated otherwise). Fluorescence intensities in the absence (Fo) and presence (F) of quencher anion ([Q]) were measured to give the Stem-Volmer constant (Kq) as defined by:
Fluorescence spectra reveal that LZQ and LMQ have broad excitation and emission peaks with maxima at 424 and 528 nm, respectively. The molar extinction coefficient of LZQ was 11,100 M^-1 cm^-1 at 424 nm and the quantum yield in the absence of I^- was 0.53. Stem-Volmer plots for quenching of LZQ and LMQ by I^- and Cl^-, with data for SPQ shown for comparison, were generated. In water (or saline), LZQ fluorescence was quenched by I^- with a Stem-Volmer constant of 60 M^-1. LZQ fluorescence was not quenched (Stem-Volmer constant <1 M^-1) by Cl^-, NO3^-, phosphate, acetate, Na^+ and K^+. LZQ fluorescence and I^- sensitivity were not affected by pH changes in the range 4.5-8.

[2] = tested on: cells; experiment: Indicator leakage / cytoplasmic retention; assay type: cell-based
Protocol: (§1) Fluorescence microscopy. Fluorescence microscopy measurements were performed as described previously (Chao et al., 1989). Briefly, coverglasses were mounted in a 0.5 ml perfusion chamber in which the cell-free glass surface made contact with an oil immersion objective (Nikon ×40 magnification, numerical aperture[NA] 1.3). Cell fluorescence was excited at 365±10 nm (SPQ) or 420 nm±10 nm (LZQ and LMQ). Emitted fluorescence was detected by a photomultiplier in a Nikon inverted epifluorescence microscope using a 410 nm dichroic mirror and 420 nm barrier filter (SPQ) or a 455 nm dichroic mirror and 500 nm barrier filter (LZQ). For cells colabeled with SPQ and LZQ, SPQ fluorescence was excited at 365±10 nm and detected using a 410 nm dichroic mirror and 455±30 nm interference filter. Confocal fluorescence micrographs were obtained using a Nipkow wheel confocal microscope and cooled CCD camera detector using a ×60 oil immersion objective (Nikon, NA 1.4). LZQ-labeled cells were viewed using a fluorescein filter set (excitation 480±15 nm, emission 520±20 nm).
(§2) A time course of LZQ fluorescence during perfusion with physiological saline at 23° C. was generated. A small group of 20-30 cells was illuminated continuously and fluorescence was detected by a photomultiplier using an ×40, 1.3 NA objective. Cellular fluorescence decreased slowly at a rate of 2.5% per hour. To determine the relative contributions of indicator leakage vs. photobleaching to the slow decline in fluorescence, the perfused cells were illuminated intermittently. […] Background fluorescence (in non-labeled cells) was generally <5% of the fluorescence of LZQ-labeled cells.

[3] = Fluorescence lifetime in water; assay type: physicochemical
Protocol: (§3) Time resolved fluorescence measurements. Fluorescence lifetime and anisotropy decay measurements were carried out in the frequency domain by cuvette fluorimetry using a Fourier transform fluorimeter (48000 MHF, SLM Instruments, Urbana, Ill.) or by fluorescence microscopy using epifluorescence microscope optics in place of the cuvette compartment (Verkman et al., 1991). For microscopy measurements, impulse-modulated vertically polarized light (442 nm, He--Cd laser 35 mwatts) was reflected onto the sample by a 510 nm dichroic mirror and objective lens; emitted fluorescence was filtered by a 515 nm barrier filter and passed through a rotatable analyzing calcite polarizer. In some experiments, a biconcave lens was introduced just in front of the dichroic mirror to diverge beam diameter in the focal plane to ~40 mm.
Analysis of lifetime and time-resolved anisotropy was performed by a comparative approach. Generally six pairs of measurements (each acquisition 8 s) were obtained, comparing sample and reference (fluorescein in 0.1 N NaOH, lifetime 4.0 ns) for measurement of lifetime, and parallel and perpendicular orientations of the emission polarizer for measurement of anisotropy decay. […] Median phase and modulation values for paired data were analyzed by nonlinear least-squares for determination of lifetimes and rotational correlation times.

[4] = tested on: 3T3 fibroblasts expressing CFTR; experiment: Intracellular sensitivity to I^-; assay type: cell-based, mouse
Protocol: as §1, with “LZQ-labeled cells were viewed using a fluorescein filter set (excitation 480±15 nm, emission 520±20 nm).” left out
as §2, with “hour.” for “hour. To determine the relative contributions of indicator leakage vs. photobleaching to the slow decline in fluorescence, the perfused cells were illuminated intermittently.”, “cells. […]” for “cells.”

[5] = tested on: cells; experiment: Time-resolved anisotropy in cells; assay type: cell-based
Protocol: as §3
Analysis of lifetime and time-resolved anisotropy was performed by a comparative approach. Generally six pairs of measurements (each acquisition 8 s) were obtained, comparing sample and reference (fluorescein in 0.1 N NaOH, lifetime 4.0 ns) for measurement of lifetime, and parallel and perpendicular orientations of the emission polarizer for measurement of anisotropy decay. The phase-modulation data consisted of phase angles and modulation ratios at 40 discrete, equally spaced modulation frequencies (5-200 MHz). The analyzing polarizer was positioned at the magic angle for lifetime measurements. Additional details of the data acquisition and analysis routines were described previously (Verkman et al., 1991). Median phase and modulation values for paired data were analyzed by nonlinear least-squares for determination of lifetimes and rotational correlation times.
Time-resolved anisotropy was measured to quantify intracellular LZQ binding. In water, LZQ rotated freely with a single-component rotational correlation time of 121±3 ps (n=3). For LZQ in cells, a plot of differential phase and modulation amplitude ratio indicated a two-component anisotropy decay model with a major component (fractional amplitude 0.90-0.94) of 144±10 ps, similar to that in water.

[6] = tested on: cells; experiment: Fluorescence lifetime in cells (frequency-domain microfluorimetry); assay type: cell-based
Protocol: as §3, with “In some experiments, a biconcave lens was introduced just in front of the dichroic mirror to diverge beam diameter in the focal plane to ~40 mm.” left out
Analysis of lifetime and time-resolved anisotropy was performed by a comparative approach. […] Median phase and modulation values for paired data were analyzed by nonlinear least-squares for determination of lifetimes and rotational correlation times.
A calibration study was done to determine the intracellular sensitivity of LZQ to I^-. […] LZQ fluorescence changed reversibly in response to changes in solution I^-. […] Fluorescence lifetime analysis was done to determine whether LZQ fluorescence is quenched in cells by substances other than I^-. Nanosecond lifetimes were measured by frequency-domain microfluorimetry. […]

With `[O-]c1nc2c(N[C@@H]3O[C@H](CO)[C@@H](O)[C@H]3O)ncnc2[n+]2ccccc12` [I, 4-(β-D-ribofuranosylamino)-pyrido [2,1-h] pteridin-11-ium-5-olate] the emission maximum [1] was 528 nm, the excitation maximum [1] was 424 nm and the Brightness ([1]; Table 4) was “+++”. The “λem (emission wavelength)” value ([1]; Table 4) was 528 nm, the “λex (excitation wavelength)” value ([1]; Table 4) was 424 nm and the molar extinction coefficient ([1]; at 424 nm) was 11,100 M^-1 cm^-1. For the same compound, the quantum yield ([1]; in the absence of I^-) was 0.53, the “effect of pH on fluorescence” value ([1]; pH 4.5-8) was “not affected” and the “cytoplasmic retention vs. LMQ” value [2] was “better cytoplasmic retention properties than LMQ”. For the same compound, the “leakage out of cells” value ([2]; microplate section) was “low rate”, the “rate of decrease of cellular fluorescence” value ([2]; perfusion with physiological saline, 23° C.) was 2.5 % per hour and the fluorescence lifetime ([3]; in water, absence of I^-) was 7.1 ns. The “quenching mechanism (lifetime decrease with [I^-])” value ([3]; increasing [I^-]) was “collisional mechanism”, the “intracellular Stern-Volmer constant, quenching by I^-” value ([4]; high [K^+] and ionophores) was 26 M⁻¹ and the “cellular fluorescence response to I^-” value ([4]; repeated addition and removal of 50 mM I^-) was “large, reversible changes in fluorescence”. For the same compound, the “binding to intracellular components” value [5] was “negligible binding”, the “fractional amplitude of major component” value ([5]; in cells) was 0.90-0.94 and the “rotational correlation time, major component” value ([5]; in cells, two-component model) was 144±10 ps. For the same compound, the “quenching by intracellular components” value [6] was “quenched little by intracellular components” and the “fluorescence lifetime in cells” value ([6]; in the absence of I^-, n=4) was 6.5±0.3 ns.
